Read-outs that look alike come from different tables or passages of the source.

Data set [1] deals with T1, hTREK-1 (Homo sapiens, UniProt O95069).
T1 sequence (O95069 1-422 isoform O95069-3): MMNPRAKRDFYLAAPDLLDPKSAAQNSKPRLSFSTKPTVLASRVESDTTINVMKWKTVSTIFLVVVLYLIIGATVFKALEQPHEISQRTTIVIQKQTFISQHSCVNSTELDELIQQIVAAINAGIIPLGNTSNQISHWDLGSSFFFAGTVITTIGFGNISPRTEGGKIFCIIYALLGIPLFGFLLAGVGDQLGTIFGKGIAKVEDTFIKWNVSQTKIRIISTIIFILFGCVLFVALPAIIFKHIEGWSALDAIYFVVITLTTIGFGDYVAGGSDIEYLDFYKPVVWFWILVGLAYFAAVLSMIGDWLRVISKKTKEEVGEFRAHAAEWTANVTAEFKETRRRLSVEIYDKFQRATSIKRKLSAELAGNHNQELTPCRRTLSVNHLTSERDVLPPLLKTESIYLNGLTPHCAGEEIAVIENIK

The subject of the next data set is naive HEK293 cells. Briefly: Thallium flux assay on naive (untransfected) HEK293 cells. Particulars: 10 µM.
Data set [2] concerns the target T1, hTREK-1. Kind of data set: Whole cell patch clamp on HEK-hTREK-1 cells. Type of data set: cell-based. Set-up: transfected with the human Kcnk2 (NM_001017424) or Kcnk10 (NM_021161) ORF cloned in a pEZ-M02 expression vector.
Data set [3] concerns CD1 mice. Briefly: Hargreaves test in carrageenan-induced paw inflammation. Type of data set: in vivo, mouse. In general terms: Carrageenan injected into the paw causes an acute inflammation.
Data set [4] relates to WT and TREK-1 KO littermates of C57Bl6/J background. Kind of data set: Horizontal bar test in WT and TREK-1 KO littermates. Type of data set: in vivo, mouse. Particulars: i.p. 50 mg/kg, 15 min. The source says: (§1) TREK-1^−/− mice were generated by crossing mice carrying an allele of the Kcnk2 gene in which exon 3 was floxed (RRID:MGI:3050295) with ZP3-Cre mice (RRID:MGI:3835429), both in C57Bl6/J background. F1 females, producing TREK-1^+/− oocytes, were crossed with WT males. TREK-1^+/− F2 offspring not carrying the ZP3-Cre transgene were finally crossed together to generate TREK-1^−/− and TREK-1^+/+ littermates, which were weaned in separate cages after genotyping using 2 mm tail samples taken at 10 days of age. Animals were identified by digital tattoos at 3 weeks of age.
A 13 cm long, 2 mm diameter metal bar was placed horizontally between 2 rods at a 30 cm height. […] After gently releasing the tail, the time taken by mice to climb on the bar (grabbing it with their four paws) was monitored.
(§2) To search for possible adverse effects induced by LPS2336 in vivo, we submitted CD1 mice to different confounding tests aiming at characterizing motor coordination, balance, muscle strength and spontaneous locomotor activity. […] Finally, we monitored the body temperature of mice for 45 min after intraperitoneal injection of LPS2336 at 40 mg/kg and could observe hypothermia in both WT and TREK-1 KO (−2.4 and −2.6 °C, respectively) following LPS2336 treatment (Figure 7F,G).

Data set [5] relates to CD1 mice. Kind of data set: Open field test in CD1 mice. It counts as in vivo, mouse. The following applies: i.p., 15 min before open field test. The procedure: (§3) Mice were placed in the center of a 50 × 50 cm arena with 45 cm high walls. Animals were filmed for 10 min and the distance traveled was measured using video-tracking software (Viewpoint Videotrack 5.13.0.10).
as §2, with “activity. […] To assess the contribution of TREK-1 to this adverse effect, we submitted TREK-1 knock-out mice (which are of the C57Bl6/J background) to the same test, 15 min following the injection of 50 mg/kg LPS2336. […] We finally submitted the mice to a third test consisting in observing their spontaneous locomotion in an open arena (open field test).” for “activity.”

The subject of data set [6] is WT and TREK-1 KO littermates of C57Bl6/J background. Briefly: Open field test in WT and TREK-1 KO littermates. It counts as in vivo, mouse. Particulars: i.p. 50 mg/kg.
Description: as §1, §3, §2

For data set [7] the test system is unchanged. Briefly: Body temperature monitoring (rectal probe). Type of data set: in vivo, mouse. Particulars: i.p. 40 mg/kg, 15 min after injection minus before.
Description: as §1
Body temperature was measured using a rectal probe in awake animals before and 15, 30 and 45 min after injection of LPS2336.
as §2, with “activity. […] To assess the contribution of TREK-1 to this adverse effect, we submitted TREK-1 knock-out mice (which are of the C57Bl6/J background) to the same test, 15 min following the injection of 50 mg/kg LPS2336.” for “activity.”

For data set [8], the target named is T1, hTREK-1. Briefly: cell-based.
Setting [9] is: 50 µM, HEK-hTREK-1 cells, vs vehicle.

Description for naive HEK293 cells: Cells were plated in 384-well plates with black walls and clear bottom coated with poly-D-lysine (Greiner Bio-One, Kremsmünster, Austria, #781946) at a density of 25 000 cells/well from a 1 250 000 cells/mL solution. Cell counting was performed with an automatic cell counter (Countness II FL, ThermoFisher, Waltham, MA, USA) with addition of trypan blue 0.2% to exclude dead cells. 24 h after plating, cells were incubated with FluxOR II green probe (ThermoFisher) for 1 h in the dark, accordingly to the supplier’s protocol (‘no wash’ procedure) with addition of 77 mg/mL probenecide. […] Fluorescence was measured every 3 s during 1 min (excitation 485 nm, emission 515 nm), and 0.5 mM thallium was added to the wells after a 20 s baseline. […] Fluorescence is normalized using the formula (F − F0)/F0 where F0 is the average fluorescence during the first 18 s of the recording. ΔFmax/F0 is calculated between 18 and 33 s (−2 to 13 s relative to thallium addition). For dose–response curves, ΔFmax/F0 are expressed as %vehicle (100% corresponding to the average ΔFmax/F0 measured in vehicle-treated wells). For high throughput screening, Z scores were calculated as(1) Z=Xsample−X¯neg/σneg where X represents ΔFmax/F0 and σ the ΔFmax/F0 standard deviation. ‘neg’ represents negative controls (vehicle-treated wells). […]

For `N#CCCN1CCC(Cc2ccccc2)CC1` [2a], the “TREK-1 activation by analogs” value at hTREK-1 [1] was “profound decrease in TREK-1 activation”.
The same measure, in the same setting: under `CC1CCN(CC#N)CC1` [2b] stands “loss of TREK-1 activation”; under `CCC#CCN1CCC(Cc2ccccc2)CC1` [2c], “profound decrease in TREK-1 activation”.
The same measure, in the same setting: under `N#CCN1CCCCC1` [2d] stands “loss of TREK-1 activation”; under `N#CCCCN1CCC(Cc2ccccc2)CC1` [2e], “profound decrease in TREK-1 activation”; under `c1ccc(CC2CCN(Cc3ccccc3)CC2)cc1` [2f], “profound decrease in TREK-1 activation”.
On the same count and under the same terms, under `CCCCN1CCC(Cc2ccccc2)CC1` [2g] stands “profound decrease in TREK-1 activation”; under `CCOC(=O)CN1CCC(Cc2ccccc2)CC1` [2h], “severely impacted TREK-1 activation ability”; under `O=C(O)CN1CCC(Cc2ccccc2)CC1` [2i], “severely impacted TREK-1 activation ability”.
For the compound `NCCN1CCC(Cc2ccccc2)CC1` [2j], the “TREK-1 activation by analogs” value at hTREK-1 [1] is “severely impacted TREK-1 activation ability”.
On to `NC(=O)CN1CCC(Cc2ccccc2)CC1` [2k], for which the “TREK-1 activation by analogs” value at hTREK-1 [1] is given as “severely impacted TREK-1 activation ability”.
Turning to `c1ccc(-c2nn[nH]n2)c(Nc2cccc3c2CCCC3)c1` [BL-1249, reference compound], the “concentrations at which active on TREK-1” value on hTREK-1 [1] was “active at sub-micromolar concentrations”. At hTREK-1 [1] (100 µM), the “toxicity to HEK-hTREK-1 cells” value is listed as “visible cell death”. Also, in the data set on naive HEK293 cells, the “effect on fluorescence in naive cells” value is “no effect”.
Consider `Nc1ccc(Oc2ccc(C(c3ccc(Oc4ccc(N)cc4)cc3)(C(F)(F)F)C(F)(F)F)cc2)cc1` [GI-530159], for which the “increase of mean current density recorded at 0 mV” value (shortened to “increase … at 0 mV”) on hTREK-1 [2] (setting [9]) is reported as 9.73 fold.
For orientation: EC50 means the concentration that produces a half-maximal response. For `N#CCN1CCC(Cc2ccccc2)CC1` [LPS2336], the “dose able to reverse the pain phenotype” value in the data set with CD1 mice [3] (intracerebroventricular, effect similar to 1 µg morphine) is on record as 100 µg. Also, in the data set on CD1 mice [3] (intraperitoneal), the “dose at which the analgesic effect reaches a plateau” value amounted to 20 mg/kg and the “time of peak analgesia after injection” value worked out at 15 min. The “dose from which pain thresholds are increased” value in the data set with CD1 mice [3] (intraperitoneal, carrageenan-injected CD1 mice) is reported as not below 20 mg/kg. The “effect on pain thresholds at the highest intrathecal dose” value in the data set with CD1 mice [3] (intrathecal, 300 µg (1400 nmol)) was “slight, non-significant effect”. The “pain relief after intrathecal administration” value in the data set with CD1 mice [3] (intrathecal, doses up to 300 µg) is reported as “not effective”. The “horizontal bar test, WT vs TREK-1 KO” value in data set [4] was “no difference between WT and TREK-1 KO mice”. Also, the “time to climb on horizontal bar in WT littermates” value in data set [4] (C57Bl6/J WT) is given as “same increase in time to climb”. Further, the “dose from which spontaneous locomotion is decreased” value in the data set on CD1 mice [5] is given as not below 30 mg/kg. Also, in [6], the “open field test, WT vs TREK-1 KO” value was “no difference between WT and TREK-1 KO mice”; the “spontaneous locomotion in C57Bl6/J mice” value is given as “same adverse effect as CD1 mice”. Moreover, the “change in body temperature (hypothermia), WT mice” value in data set [7] (C57Bl6/J WT) is −2.4 °C. For the same compound, the “change in body temperature (hypothermia), TREK-1 KO mice” value in [7] (TREK-1 KO) was −2.6 °C. Further, on hTREK-1 [1], the “average Z score in high throughput screening” value is 3.50 ± 0.24 and the “times over the positivity threshold” value was 3/3. The compound also yielded a concentration giving a half-maximal response (EC50) at hTREK-1 [8] of 11.8 µM. In addition, on hTREK-1 [2], the “increase … at 0 mV” value is on record as 10.77 fold.
`O=C(NCCCCN1CCN(Cc2ccccc2)CC1)c1ccc2ccccc2c1` [LPS6257]: the “change in ΔFmax/F0 compared to the vehicle condition” value at hTREK-1 [1] is on record as −70%.
On to `CS(=O)(=O)Nc1ccc(C(=O)NCc2ccc(Cl)cc2Cl)cc1` [ML335, reference compound], for which the “increase in ΔFmax/F0” value on hTREK-1 [1] was determined as 2.60 fold. For the same compound, the “effect of salification on TREK-1 activation” value at hTREK-1 [1] (100 µM) was “increased TREK-1 activation”. Besides, the EC50 on hTREK-1 [1] (read-out: EC50 (TREK-1 activation, thallium assay)) was found to be 6.7 µM. Further, at hTREK-1 [2] (setting [9]), the “increase … at 0 mV” value turned out to be 13.35 fold.
Turning to `Cc1cc(Cl)ccc1OCCNC(=O)c1cccs1` [ML402, reference compound], the “effect of salification on TREK-1 activation” value on hTREK-1 [1] (100 µM) is “increased TREK-1 activation”.
As for `CNCCC(Oc1ccc(C(F)(F)F)cc1)c1ccccc1` (centres unmarked) [fluoxetine, reference compound], the “TREK-1 activation (ΔFmax/F0)” value on hTREK-1 [1] is given as 54 % of vehicle.
For `CN1CC[C@]23c4c5ccc(O)c4O[C@H]2[C@@H](O)C=C[C@H]3[C@H]1C5` [morphine, reference compound], in the data set on CD1 mice [3] (intracerebroventricular, 1 µg (3.5 nmol)), the “analgesia after intracerebroventricular administration” value is recorded as “analgesic”. Further, the “analgesia after intrathecal administration” value with CD1 mice [3] (intrathecal, 3 µg (10.5 nmol)) was “long-lasting analgesia”.

These data come from article PMC12109561, “LPS2336, a New TREK-1 Channel Activator Identified by High Throughput Screening” (Biomolecules, 2025).
